Drawing on patent US5216162A, “Substituted pyrrolo[3,2-c]quinolines” (American Home Products Corporation, priority 1992, dated 1993), this text covers inhibition and IC50 for six compounds.

In the assay the test system is IL-1-induced release of neutral protease from rabbit articular chondrocytes. Nature of the assay: Inhibition of IL-1-induced release of neutral protease from rabbit articular chondrocytes (azocoll neutral protease assay). Type of assay: cell-based, rabbit (male New Zealand white). Conditions: Oryctolagus cuniculus, Chondrocyte, purified human IL-1 stimulation. As to the method:
The ability of the compounds of the inventions to inhibit interleukin 1 is measured by the ability of the test compounds to inhibit the IL-1-induced release of neutral protease from rabbit articular chondrocytes.
This assay is carried out as follows:
Isolation of rabbit chondrocytes
Male New Zealand white rabbits are anesthetized with 50 mg/kg of ketamine (i.m.) and killed by an intracardiac injection of 3 mls of Nembutal. The knee joints of both legs are resected and the articular surfaces are exposed. Cartilage slices are obtained using a scalpel and are placed in a tissue culture dish (100 mm diameter) containing 10 mls of Hank's balanced salt solution (HBSS). The chondrocytes within the cartilage slices are then liberated by a series of enzyme digestions. The slices are incubated for 10 minutes at 37° C. in 0.05% hyaluronidase (Sigma H-3884), rinsed with HBSS and incubated with 0.2% trypsin (Sigma T-2395) for 10 minutes at 37° C. The slices are rinsed again and incubated for 10 minutes at 37° C. with 1.2% collagenase (Sigma C-5138). The slices are then rinsed again with HBSS and resuspended in 10 ml of Ham's F-12 medium containing 10% fetal bovine calf serum (FCS) and 0.2% collagenase and incubated overnight at 37° C. in a 5% CO2 incubator. The next day, the medium containing the digested cartilage fragments and liberated chondrocytes is transferred to a 15 ml centrifuge tube and the cells are collected by centrifugation and washed twice and resuspended in Ham's F-12 medium. The cells are then plated into 24-well tissue culture plates (2×10^ 5 cells/well) and incubated at […] until confluent (usually 4-6 days).
Stimulation of chondrocytes and drug treatment
The confluent chondrocytes are rinsed twice with serum-free Ham's F-12 medium and 1 ml is added to each well. Fifty μl of purified human IL-1 (100 Units/ml; Genzyme Corporation, Boston, MA) is then added to stimulate these cells to secrete neutral protease. To measure drug effects, the cells are treated with test compound 10 minutes prior to addition of IL-1. The standard screening dose is 10 μM. Twenty-four hours after IL-1 stimulation, supernatant fluids are collected and assayed for neutral protease activity.
The neutral protease activity of chondrocyte supernatant fluids is determined by their ability to degrade an insoluble protease substrate, azocoll (Sigma). Supernatants are treated for 10 minutes at room temperature with 350 μM p-aminophenylmurcuric acetate to activate the latent enzyme. Three hundred of μl of supernatant is then mixed with 500 μl of a 20 mg/ml suspension of azocoll and incubated at 37° C. for 18-24 hours with gentle rocking. The mixtures are centrifuged and the amount of substrate hydrolyzed is determined by measuring the absorbance of the supernatant at 520 nm.
Drug effects are calculated as the % change in enzyme activity (absorbance)by supernatants from drug-treated chondrocytes relative to enzyme activity of supernatants from vehicle-treated chondrocytes as follows: [formula]
Where tested in this assay, the compounds of the invention gave the following results: […]

Setting [1] is: test compound 10 min before IL-1, 24 h, read-out: % Inhibition (I.S.D.).

What is called inhibition is the relative decrease from the control value, in per cent. Take `N#Cc1ccc(NCCc2[nH]c3c(cnc4cc(Cl)ccc43)c2C=O)cc1` [Example 1, 4-[[2-(7-Chloro-3-formyl-1H-pyrrolo[3,2-c]-quinolin-2-yl)ethyl]amino]benzonitrile]: the inhibition at 10 µM under setting [1] came to 21%.
`CCOC(=O)c1ccc(NCCc2[nH]c3c(cnc4cc(Cl)ccc43)c2C=O)cc1` [Example 2, 4-[[2-(7-Chloro-3-formyl-1H-pyrrolo[3,2-c]quinolin-2-yl)ethyl]amino]benzoicacid ethyl ester]: under setting [1], the inhibition at 10 µM amounted to 50%.
`CS(=O)(=O)c1ccc(NCCc2[nH]c3c(cnc4cc(Cl)ccc43)c2C=O)cc1` [Example 3, 7-Chloro-2-[2-[[4-(methylsulfonyl)phenyl]amino]ethyl]-1H-pyrrolo[3,2-c]quinoline-3-carboxaldehyde]: under setting [1], the inhibition at 10 µM was found to be 28%.
With `N#Cc1ccc(NCCc2[nH]c3c(cnc4cc(Cl)ccc43)c2C=NNc2ccccc2)cc1` [Example 4, 4-[[2-[7-Chloro-3-[(phenylhydrazono)methyl]-1H-pyrrolo[3,2-c]quinolin-2-yl]ethyl]amino]benzonitrile], under setting [1], the inhibition at 10 µM was determined as 52%.
For `CCOC(=O)c1ccc(NCCc2[nH]c3c(cnc4cc(Cl)ccc43)c2C=NNc2ccccc2)cc1` [Example 5, 4-[[2-[7-Chloro-3-[(phenylhydrazono)methyl]-1H-pyrrolo[3,2-c]quinolin-2-yl]ethyl]amino]benzoic acid ethyl ester], the inhibition at 10 µM under setting [1] is 54%.
The IC50 is the concentration that inhibits the measured activity by half. Higher therefore signals lower potency. For `CS(=O)(=O)c1ccc(NCCc2[nH]c3c(cnc4cc(Cl)ccc43)c2C=NNc2ccccc2)cc1` [Example 6, 7-Chloro-2-[2-[[4-(methylsulfonyl)phenyl]amino]ethyl]-1H-pyrrolo[3,2-c]quinoline-3-carboxaldehyde phenylhydrazone], the inhibition at 0.1 µM (dose 0.1 μM, test compound 10 min before IL-1, 24 h, read-out: % Inhibition (I.S.D.)) turned out to be 14%. Besides, the inhibition at 1 µM (dose 1 μM, test compound 10 min before IL-1, 24 h, read-out: % Inhibition (I.S.D.)) was 23%. In addition, the inhibition at 10 µM under setting [1] stood at 80%. Half-maximal inhibition (24 h, doses 10, 1 and 0.1 μM) (IC50) required 2.9 µM.
